# Laboratory results taken from US20110039762A1, “TARGETED ANTIMICROBIAL MOIETIES” (C3 JIAN, INC., priority 2009, published 2011).
# “Also recorded” adds a separate entry of the source.
# Test system: microorganisms (e.g., bacteria, yeasts, fungi)
# Assay: Targeting peptide binding to target microorganisms (Table 3)
# Details: microorganism(s) the targeting peptide binds; binding in aqueous buffers depending on peptide solubility, preferably 1x PBS
row,Substance,Target(s)
1,PF-384 (HISKERFEAY; Peptide with targeting and/or antimicrobial activity),E. faecalis; also recorded: C. jeikeium; also recorded: C. jejuni

# Same assay, conditions: microorganism(s) the targeting peptide binds; peptide binding conducted in aqueous buffers varied by peptide solubility, preferably 1x PBS
row,Substance,Target(s)
1,PF-388 (ITPLLDEIGKVCIDKISK; Peptide with targeting and/or antimicrobial activity),E. faecalis; also recorded: C. jeikeium; also recorded: C. jejuni
2,PF-400 (VIAWKFRNKFENSGV; Peptide with targeting and/or antimicrobial activity),S. epidermidis; also recorded: E. coli; also recorded: S. pneumoniae; also recorded: E. faecalis; also recorded: C. jeikeium
3,PF-402 (FIDVLKSKINEFLN; Peptide with targeting and/or antimicrobial activity),S. epidermidis; also recorded: P. aeruginosa; also recorded: E. faecalis; also recorded: C. jejuni
4,PF-409 (DLVQSILSEFKKSG; Peptide with targeting and/or antimicrobial activity),S. epidermidis and MRSA and C. jeikeium and C. jejuni
5,PF-412 (TSGWLGQLEQ; Peptide with targeting and/or antimicrobial activity),M. luteus; also recorded: E. coli; also recorded: C. albicans; also recorded: C. jeikeium; also recorded: C. jejuni
6,PF-435 (MSRWDGHSDKGEAPAGKPPMHGFGLNGENK; Peptide with targeting and/or antimicrobial activity),C. jeikeium
7,PF-436 (KKHVLVGKQEKNG; Peptide with targeting and/or antimicrobial activity),C. jeikeium
8,PF-438 (QPYFQNQFKKITGYTPLQYRKEKR; Peptide with targeting and/or antimicrobial activity),S. epidermidis; also recorded: E. coli; also recorded: S. pneumoniae; also recorded: C. jeikeium; also recorded: C. jejuni
9,PF-441 (TQVHKMARGIDPGPANGIYR; Peptide with targeting and/or antimicrobial activity),C. jeikeium
10,PF-463 (MVILVFSLIFIFTDNYLVYQSKSIKEDVMI; Peptide with targeting and/or antimicrobial activity),S. epidermidis; also recorded: E. coli; also recorded: P. aeruginosa; also recorded: C. albicans; also recorded: S. pneumoniae; also recorded: E. faecalis; also recorded: M. smegmatis
11,PF-481 (DELYEIMDKVIEEFNKDIEQNNNNGNNEDLTENKIN; Peptide with targeting and/or antimicrobial activity),C. jeikeium
12,PF-483 (EDNKDKKDKKDK; Peptide with targeting and/or antimicrobial activity),P. mirabilis; also recorded: C. jeikeium; also recorded: C. jejuni
13,PF-486 (MQKEGEEDY; Peptide with targeting and/or antimicrobial activity),S. mutans
14,PF-487 (MYKAIAVLAMTIMAFFIFVYPFFIVGLILG; Peptide with targeting and/or antimicrobial activity),S. mutans; also recorded: E. coli
15,PF-488 (YPNEQGHHKNNLKNIIIE; Peptide with targeting and/or antimicrobial activity),S. mutans; also recorded: E. coli
16,PF-489 (KVDRVSTTITEKIK; Peptide with targeting and/or antimicrobial activity),S. mutans
17,PF-490 (RLILVSGNATVQK; Peptide with targeting and/or antimicrobial activity),S. mutans; also recorded: E. coli
18,PF-491 (IHQYSSKPDIVGQEAKTVQQINS; Peptide with targeting and/or antimicrobial activity),S. mutans; also recorded: E. coli
19,PF-492 (IQIDAASFYSISKSTIK; Peptide with targeting and/or antimicrobial activity),S. mutans; also recorded: B. subtilis; also recorded: E. coli

row,Substance,Target(s)
1,PF-493 (PGAFFFCRGRGCWCGIGW; Peptide with targeting and/or antimicrobial activity),S. mutans; also recorded: B. subtilis; also recorded: E. coli
2,PF-494 (FTEPLRPLQAKGQIISIKPSTSSS; Peptide with targeting and/or antimicrobial activity),S. mutans
3,PF-495 (KGIYKKRTY; Peptide with targeting and/or antimicrobial activity),S. mutans; also recorded: E. coli
4,PF-496 (EVTKRLVALAQQQLRG; Peptide with targeting and/or antimicrobial activity),S. mutans; also recorded: E. coli
5,PF-498 (MSEEEEVSEKVYNYLRRNEFFEVRKEEFSA; Peptide with targeting and/or antimicrobial activity),S. mutans; also recorded: E. coli
6,PF-500 (MGIFKEEKIKFIDCKGEEVILKIKIKDIKK; Peptide with targeting and/or antimicrobial activity),S. mutans; also recorded: E. coli
7,PF-501 (GSTAHKSPIGSTNNQWGMKKTPTD; Peptide with targeting and/or antimicrobial activity),S. mutans
8,PF-502 (NKGKQMQDQTGKQPIVDNG; Peptide with targeting and/or antimicrobial activity),S. mutans
9,PF-503 (VVTLKDIVAVIEDQGYDVQ; Peptide with targeting and/or antimicrobial activity),S. mutans
10,PF-504 (ILSVELSTKTSASGS; Peptide with targeting and/or antimicrobial activity),S. mutans; also recorded: E. coli
11,PF-505 (GYTKDPGTGI; Peptide with targeting and/or antimicrobial activity),S. mutans
12,PF-506 (SGRGFALIVVLFILLIIVGAACIR; Peptide with targeting and/or antimicrobial activity),S. mutans; also recorded: E. coli
13,PF-507 (LALSIANLFKKKA; Peptide with targeting and/or antimicrobial activity),S. mutans; also recorded: E. coli
14,PF-508 (VSTFGKVVKVVDEK; Peptide with targeting and/or antimicrobial activity),S. mutans
15,PF-509 (EAKVQAKGEQIACNNY; Peptide with targeting and/or antimicrobial activity),S. mutans; also recorded: B. subtilis; also recorded: E. coli
16,PF-510 (WYLYKKQSNQNDRGIPK; Peptide with targeting and/or antimicrobial activity),S. mutans; also recorded: E. coli
17,PF-568 (TQAVQVKTAQAQQQ; Peptide with targeting and/or antimicrobial activity),S. epidermidis
18,PF-570 (KKFPTEESHIQAVLEFKKLTEHPSG; Peptide with targeting and/or antimicrobial activity),S. pneumoniae; also recorded: C. jeikeium

# Same assay, conditions: peptide binding in aqueous buffers varied by peptide solubility; preferably 1x PBS
row,Substance,Target(s) (microorganisms bound by the targeting peptide)
1,PF-641 (SWKCHHLAIGGSWKCHHLAI; Peptide with targeting and/or antimicrobial activity),S. epidermidis and M. luteus and E. coli and C. albicans and MRSA and E. faecalis and C. jeikeium and C. jejuni
